Experiments:
HCV = conditions: Anggakusuma et al., 2013, read-out: EC50 inhibiting binding and fusion; cited from earlier work
[1] = test system: virus (not named) in Huh7 cells; assay: Cytopathic effect assay; conditions: for inhibition at 14 µM: read-out: average inhibition (%) at 14 μM; for inhibition at 29 µM: read-out: average inhibition (%) at 29 μM; for average inhibition (%) at 14 μM / average inhibition (%) at 29 μM: virus added directly after compound
[2] = test system: enveloped viruses, including HIV, IAV, VSV, and SARS; conditions: VSV (Harada, 2005), SARS (Cinatl et al., 2003); cited from earlier work
[3] = Huh7 cells, cytopathic effect, 7 days at 33° C.

Row | Compound | EC30 [1, 3] [µM] | average inhibition (%) at 14 μM ([1]; Huh7 cells, 7 days at 33° C.) [%] | average inhibition (%) at 29 μM ([1]; Huh7 cells, 7 days at 33° C.) [%] | also measured
1 | COc1cc(/C=C/C(=O)CC(=O)/C=C/c2ccc(O)c(OC)c2)ccc1O [Curcumin] |  |  |  | EC50 (HCV): 8.46 µM
2 | CCCCCCCCCCCCCC(=O)NCCC[N+](C)(C)Cc1ccccc1 [ES001071, myristamido-propyl-dimethyl-benzyl-ammonium chloride, reference compound] | 22.7 |  |  | inhibition at 14 µM ([1]; Huh-7, 168 h): 8.7%; inhibition at 29 µM ([1]; Huh-7, 168 h): 35.9%
3 | CCCCCCCCCCCCCC(=O)NCCC[N+](C)(C)Cc1ccccc1.C[C@H](O)C(=O)[O-] [ES001391, Myramistin (L)-lactate] | 45.1 | 0 | 18.5 | 
4 | CCCCCCCC(=O)[O-].CCCCCCCCCCCCCC(=O)NCCC[N+](C)(C)Cc1ccccc1 [ES001639, Myramistin capiylate] | 22.3 | 17.9 | 42.1 | 
5 | CCCCCCCCCCCCCC(=O)NCCC[N+](C)(C)Cc1ccccc1.O=C([O-])CO [ES001652, Myramistin glycolate] | 23.8 | 17.0 | 36.2 | 
6 | CCCCCCCCCCCCCC(=O)NCCC[N+](C)(C)Cc1ccc(C)cc1 [ES001706, N-(3-(dimethyl 4-methylbenzylammonio)propyl)myristamide chloride] |  |  |  | inhibition at 14 µM ([1]; Huh-7, 168 h): 23.8%; inhibition at 29 µM ([1]; Huh-7, 168 h): 34.1%
7 | CCCCCCCCCCCCCC(=O)NCCC[N+](C)(C)Cc1ccc(C#N)cc1 [ES001713, N-(3-(dimethyl 4-cyanobenzylammonio)propyl)myristamide chloride] | 11.8 |  |  | EC50 ([1]; Huh-7, 168 h): 16.7 µM; inhibition at 14 µM ([1]; Huh-7, 168 h): 38.3%; inhibition at 29 µM ([1]; Huh-7, 168 h): 79.4%
8 | CCCCCCCCCCCCCC(=O)NCCC[N+](C)(C)CCc1ccccc1.[Cl-] [ES001726, N-(3-(dimethylethylenephenylammonio)propyl)myristamide chloride] | 15.7 | 26.4 | 14.9 | 
9 | CC1(C)[C@@H](O[C@H]2O[C@H](C(=O)O)[C@@H](O)[C@H](O)[C@H]2O[C@@H]2O[C@H](C(=O)O)[C@@H](O)[C@H](O)[C@H]2O)CC[C@]2(C)[C@H]3C(=O)C=C4[C@@H]5C[C@@](C)(C(=O)O)CC[C@]5(C)CC[C@@]4(C)[C@]3(C)CC[C@@H]12 [Glycyrrhizin] |  |  |  | activity against enveloped viruses [2]: weakly active
10 | Myramistin citrate [ES001637] | 21.1 | 19.5 | 36.8 | 
11 | N-(3-(dimethyl 3-methylenethiophenyl ammonio)propyl)myristamide chloride [ES001716] | 21.1 | 13.3 | 51.8 | EC50 [1, 3]: 28.1 µM
12 | N-(3-(dimethyl 4-methylenenaphthyl ammonio)propyl)myristamide chloride [ES001715] | 10.0 | 45.4 | 0 | 

Reference: patent US20230118459A1, “ANTIVIRAL TREATMENT” (priority 2020, published 2023)
